Data: US7388028B2, “Methoxypolyethylene glycol thioester chelate and uses thereof” (priority 2006, dated 2008)

Tests used:
[1] = system: NMDA retinal damage model; experiment: NMDA retinal damage model, electroretinogram A and B waves; assay type: in vivo, rats
Method: NMDA retinal damage model: Changes in electroretinogram (ERG) A and B waves have been used as indicators of RGC damage. To examine RGC neuroprotection, 2 ul intravitreal injections of 10 mM NMDA, sufficient to change ERG A and B-waves within 2 weeks, were challenged with co-administered intravitreal (2 mM) or topical 100 mM MPDTE, MPSEDE and amifostine in normal rats unilaterally. For topical administration, rats were pretreated for 5 days prior and 3 days post-NMDA administration with the agents at a frequency of 3 times per day with 20 μl agent. Scotopic ERG changes were measured in normal rats. Rats were dark adapted for at least 4 hrs. Eyes were dilated with atropine after which proparacaine and methylcellulose gel were applied topically. Custom made AgCl electrodes (64-1317, Warner Instruments, Hamden, Conn.) were placed on the apex of the cornea. Stimuli consisted of 10-microsec flashes of unattenuated white light generated by Ganzfield bowl photo stimulator (Grass Instruments, PS22, Quincy, Mass.). Data from each eye was recorded separately with a driver amplifier (Grass Instruments, Model 7DAF Polygraph, Quincy, Mass.). Data was acquired digitally via DASYLab (Bedford, N.H.). The contralateral normal eye served as an age matched negative control, e.g. response in a normal, undamaged eye. Differences in amplitude of the A-wave and B-waves between the treated eye and the contralateral eye and between treatment groups were calculated.

[2] = system: rat surgical glaucoma model (intraocular pressure); experiment: Topical application of MP compounds, IOP measurements on rat surgical glaucoma model; assay type: in vivo, rats
Method: Rat ocular hypertensive model: Ocular hypertension was induced in 9 male SpragueDawley rats, weighing between 400 to 500 grams. Under general anesthesia with acepromazine maleate (12 mg/Kg) and ketamine (80 mg/Kg), IP, and topical proparacaine (0.5%), dissection of the conjunctiva was made with fine cuts. To reduce the stimulus for revascularization or neovascularization, dissection of the right eye was limited to the area immediately surrounding the vortex veins. Three of four vortex veins were exposed and ligated using 9.0 nylon sutures. Criterion for inclusion into the study was an intraocular pressure (IOP) increase of 5 mm Hg or more when compared to […] baseline IOP. Within 6 weeks, the IOP of all the operated eyes increased at least 5 mm Hg compared to baseline. National Institutes of Health Guidelines and Association for Research in Vision and Opthalmology statement for the Use and Care of Animals were followed in this study.
Intraocular pressure (IOP) Measurements: Prior to initiation of treatment, baseline IOP was obtained in glaucoma rat models. IOP was measured via a specially modified Goldmann applanation tonometer (HAAG-STREIT, Bern, Switzerland) under sedation. Measurements are averages of two consecutive readings and were made at the same time of day and by the same observers.
Topical application of MP compounds for IOP measurements on rat surgical glaucoma model: Rats were treated topically with 20 μl of MP compounds (0.3-100 mM; n=3-6) on the operated eyes. The MP compounds were compared to 10 or 87 mM topical amifostine, a free radical scavenger. MP esterified chelators were diethylenetriaminepentaacetic acid (MPDTE) and MPSEDE.

[3] = Intravitreal agent (2 mM) co-administered with intravitreal 10 mM NMDA
[4] = Topical agent (100 mM, 3 times per day, 5 days prior and 3 days post-NMDA), intravitreal 10 mM NMDA

Molecule | A wave [1, 3] | B wave [1, 3] | A wave [1, 4] | B wave [1, 4] | IOP reduction ([2]; topical 10 mM or 87 mM) | IOP reduction ([2]; single topical dose of 10-100 mM, operated eye, FIG. 5-7) | reduction of NMDA damage ([1]; both intravitreal and topical administration (Table 1)) | reduction of NMDA damage ([1]; co-administration with NMDA, at the dose tested) | IOP reduction ([2]; administered alone or together, FIG. 10, not as great as with MPDTE)
CN[C@H](CC(=O)O)C(=O)O [NMDA, N-methyl-D-aspartate, reference compound] | 51.2 % Baseline | 68.4 % Baseline | 51.2 % Baseline | 68.4 % Baseline |  |  |  |  | 
NCCCNCCSP(=O)(O)O [amifostine, S-2-[3-aminopropylamino] ethylphosphorothioate] |  |  |  |  | No reduction in IOP |  |  |  | 
methoxypolyethlene glycol thioester of ethylenediaminetetraacetic acid methyl triester [MPSEDE] | 76.2 % Baseline | 69.6 % Baseline | 95.9 % Baseline | 93.7 % Baseline |  | significantly reduced IOP | significantly reduced NMDA damage | trend to reduce NMDA damage, but this was not significant | 
polyethylene glycol monomethyl ether [MP] |  |  |  |  |  |  |  |  | reduction in IOP
